Earlier results on one compound are cited in patent publication US20130079315A1, “Ophthalmic Gel Compositions” (priority 2011, published 2013).

For `CCOC(=O)O[C@]1(C(=O)OCCl)CC[C@H]2[C@@H]3CCC4=CC(=O)C=C[C@]4(C)[C@H]3[C@@H](O)C[C@@]21C` [LE, (11β,17α),-7-((Ethoxycarbonyl)oxy)-11-hydroxy-3-oxoandrosta-1,4-diene-17-carboxylic acid chloromethyl ester], the solubility in water entry was “about 0.008 mg/mL”.
